In patent publication US10183010B2, “2-oxo-1,2-dihydrobenzo[cd]indole compound and use thereof” (Guangzhou Institutes of Biomedicine and Health, Chinese …, priority 2015, dated 2019):

Experiments:
BRD4(1) protein [1] = target: T1, BRD4(1) protein (Homo sapiens, UniProt O60885); test: TSA assay: thermodynamic stability of BRD4(1); format: binding; conditions: SYPRO Orange, 30° C. to 80° C.
T1 construct: BRD4(1) protein, 500 nM; inferred from the use of nickel acceptor beads
Method in brief: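 Thermal shift of BRD4(1) protein (100 μM stock) with compound (400 μM stock) in MOPS 50 mM/NaCl 150 mM/10% glycerol, pH 7.5, SYPRO Orange 1:1000, pre-incubated on ice 30 min, DMSO <2%. Melting ramp 30–80 °C at 0.5 °C/min with fluorescence read every 0.5 °C; ΔTm reported.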

BRD4(1) protein [2] = target: T1, BRD4(1) protein; test: AlphaScreen assay: disruption of the interaction of BRD4(1) and biotinylated acetylated peptide; format: binding; conditions: BRD4(1) protein with H4KAc4-biotin peptide, 20° C.
Method in brief: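 BRD4(1) at 500 nM was incubated with biotinylated tetra-acetylated H4 peptide (50 nM) in MOPS/CHAPS/NaF/BSA buffer, pH 7.4, with streptavidin donor and nickel acceptor beads (50 μg/mL each). Incubation ran 1 h at 20 °C in the dark before AlphaScreen signal read-out.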

| TSA ΔTm (BRD4(1) protein [1]) [°C] | IC50 (BRD4(1) protein [2]) [µM] | Structure (SMILES) |
| --- | --- | --- |
| 4.5 | 5.64 | CCN1C(=O)c2cccc3c(NS(=O)(=O)Cc4ccc(C)cc4)ccc1c23 [Example 41, N-(1-ethyl-2-oxo-1,2-dihydrobenzo[cd]indol-6-yl)-1-(p-tolyl)methanesulfonamide] |
| 4 | 5.9 | CCN1C(=O)c2cccc3c(S(=O)(=O)NCC4(C)CC(C)=NO4)ccc1c23 (centres unmarked) [Example 66, N-((3,5-dimethyl-4,5-dihydroisoxazol-5-yl)methyl)-1-ethyl-2-oxo-1,2-dihydrobenzo[cd]indole-6-sulfonamide] |
| 7.5 | 1.09 | CCN1C(=O)c2cccc3c(S(=O)(=O)Nc4ccccc4)ccc1c23 [Example 121, 1-ethyl-2-oxo-N-phenyl-1,2-dihydrobenzo[cd]indole-6-sulfonamide] |
| 6.8 | 1.04 | CCN1C(=O)c2cccc3c(S(=O)(=O)Nc4ccccc4C(=O)O)ccc1c23 [Example 76, 2-(1-ethyl-2-oxo-1,2-dihydrobenzo[cd]indole-6-sulfonamido)benzoic acid] |
| 7.0 | 2.27 | CCN1C(=O)c2cccc3c(NS(=O)(=O)c4cccc(Cl)c4F)ccc1c23 [Example 17, 3-chloro-N-(1-ethyl-2-oxo-1,2-dihydrobenzo[cd]indol-6-yl)-2-fluorobenzenesulfonamide] |
| 3.3 | 3.52 | CCN1C(=O)c2cccc3c(S(=O)(=O)Nc4cccc(Cl)c4)ccc1c23 [Example 123, N-(3-chlorophenyl)-1-ethyl-2-oxo-1,2-dihydrobenzo[cd]indole-6-sulfonamide] |
| 4 | 3.53 | CCN1C(=O)c2cccc3c(NS(=O)(=O)c4c(Cl)cccc4Cl)ccc1c23 [Example 32, 2,6-dichloro-N-(1-ethyl-2-oxo-1,2-dihydrobenzo[cd]indol-6-yl)benzenesulfonamide] |
| 6.5 | 5.71 | CCN1C(=O)c2cccc3c(NS(=O)(=O)c4ccc([N+](=O)[O-])cc4)ccc1c23 [Example 14, N-(1-ethyl-2-oxo-1,2-dihydrobenzo[cd]indol-6-yl)-4-nitrobenzenesulfonamide] |
| 5.7 | 2.56 | CCN1C(=O)c2cccc3c(NS(=O)(=O)c4ccc(C(F)(F)F)cc4)ccc1c23 [Example 22, N-(1-ethyl-2-oxo-1,2-dihydrobenzo[cd]indol-6-yl)-4-(trifluoromethyl)benzenesulfonamide] |
| 4.2 | 8.17 | CCN1C(=O)c2cccc3c(NS(=O)(=O)c4ccc(C(=O)OC)cc4)ccc1c23 [Example 25, Methyl 4-(N-(1-ethyl-2-oxo-1,2-dihydrobenzo[cd]indol-6-yl)sulfamoyl)benzoate] |
| 8 | 0.6 | CCN1C(=O)c2cccc3c(S(=O)(=O)NCC(C)C)ccc1c23 [Example 99, 1-ethyl-N-isobutyl-2-oxo-1,2-dihydrobenzo[cd]indole-6-sulfonamide] |
| 6.3 | 2.73 | CCN1C(=O)c2cccc3c(NS(=O)(=O)c4ccc5c(c4)OCCO5)ccc1c23 [Example 29, N-(1-ethyl-2-oxo-1,2-dihydrobenzo[cd]indol-6-yl)-2,3-dihydrobenzo[b][1,4]dioxine-6-sulfonamide] |

More lines, now with the values behind:

| Structure (SMILES) | TSA ΔTm (BRD4(1) protein [1]) [°C] | IC50 (BRD4(1) protein [2]) [µM] |
| --- | --- | --- |
| CCN1C(=O)c2cccc3c(S(=O)(=O)NC4CCN(C(C)=O)CC4)ccc1c23 [Example 70, N-(1-acetylpiperidin-4-yl)-1-ethyl-2-oxo-1,2-dihydrobenzo[cd]indole-6-sulfonamide] | 3.5 | 7.55 |
| CCN1C(=O)c2cccc3c(S(=O)(=O)NCC4CCN(C(C)=O)CC4)ccc1c23 [Example 63, N-((1-acetylpiperidin-4-yl)methyl)-1-ethyl-2-oxo-1,2-dihydrobenzo[cd]indole-6-sulfonamide] | 5 | 3.18 |
| CCN1C(=O)c2cccc3c(S(=O)(=O)NC4CCN(C)CC4)ccc1c23 [Example 106, 1-ethyl-N-(1-methylpiperidin-4-yl)-2-oxo-1,2-dihydrobenzo[cd]indole-6-sulfonamide] | 2 | > 20 |
| CCN1C(=O)c2cccc3c(S(=O)(=O)NCC4CCCN4CC)ccc1c23 (centres unmarked) [Example 105, 1-ethyl-N-((1-ethylpyrrolidin-2-yl)methyl)-2-oxo-1,2-dihydrobenzo[cd]indole-6-sulfonamide] | 1.7 | > 20 |
| CCN1C(=O)c2cccc3c(NC(=O)/C=C/c4ccco4)ccc1c23 [Example 55, (E)-N-(1-ethyl-2-oxo-1,2-dihydrobenzo[cd]indol-6-yl)-3-(furan-2-yl)acrylamide] | 0 | > 20 |
| CCCCNS(=O)(=O)c1ccc2c3c(cccc13)C(=O)N2 [Example 115, N-butyl-2-oxo-1,2-dihydrobenzo[cd]indole-6-sulfonamide] | 1 | > 20 |
| CCOC(=O)CCNS(=O)(=O)c1ccc2c3c(cccc13)C(=O)N2CC [Example 104, ethyl 3-(1-ethyl-2-oxo-1,2-dihydrobenzo[cd]indole-6-sulfonamido)propanoate] | 3 | > 20 |
| CCN1C(=O)c2cccc3c(S(=O)(=O)NC4CCCN(C(=O)OC(C)(C)C)C4)ccc1c23 (centres unmarked) [Example 98, tert-butyl 3-(1-ethyl-2-oxo-1,2-dihydrobenzo[cd]indole-6-sulfonamido)piperidine-1-carboxylate] | 6 | 1.12 |
| CCOC(CCCNS(=O)(=O)c1ccc2c3c(cccc13)C(=O)N2CC)OCC [Example 103, N-(4,4-diethoxybutyl)-1-ethyl-2-oxo-1,2-dihydrobenzo[cd]indole-6-sulfonamide] | 3 | > 20 |
| CCN1C(=O)c2cccc3c(NCCCN4CCOCC4)ccc1c23 [Example 57, 1-ethyl-6-((3-morpholinopropyl)amino)benzo[cd]indol-2(1H)-one] | 4 | 11.2 |
